Assay results published in US6355785B1, “Guanosine-rich oligonucleotide integrase inhibitors” (Aronex Pharmaceuticals, Inc., priority 1993, dated 2002).
Where two headings read alike, the source gives them in different places. In the oligonucleotide strings, read from the 5' end, every base follows the letter of its sugar. An asterisk marks phosphorothioate; unmarked linkages are phosphodiester. Other units and linkages are bracketed, terminal groups are in braces. A string of capitals states the bases alone. d = 2'-deoxy (DNA)

Assays:
T7 polymerase = T7 polymerase (Escherichia phage T7, UniProt P00573); assay: Bacterial T7 in-vitro transcription assay; type: biochemical
Method: In this assay system, a 2 kb fragment (HindIII to EcoR1) of the FMLV virus (clone 57) was molecularly cloned between the HindIII/EcoR1 sites 10 bp downstream of the bacterial T7 promoter (p275A) or 50 bp downstream of the bacterial T3 promoter (pBSFMLV2). A schematic representation of these two recombinant plasmids can be seen in FIG. 1. Isolated recombinant DNA was then digested with DdeI. Oligonucleotides were then incubated with the digested DNA and the mixture was subjected to in-vitro transcription using either the T7 or T3 bacterial enzymes.

SUP T1 cells [1] = assay: Cytotoxicity assay, CellTiter 96 (MTS), SUP T1 cells; conditions: read-out: TC50 (concentration reducing cell proliferation by 50%); SUP T1, dye (MTS) metabolism assay
HSV-1 IE175 promoter = assay: Eukaryotic in vitro transcription (HeLa cell nuclear extract)
HIV-1 strain DV = assay: HIV-1 induced syncytia formation assay in SUP T1 cells; type: cell-based
HIV-1DV = assay: HIV-1 p24 production in SUP T1 cells; type: cell-based; conditions: for IC50: SUP T1, HIV-1DV, four days
HIV-1 RT = HIV-1 RT (Human immunodeficiency virus type 1 group M subtype B, UniProt P04585); assay: In vitro inhibition of HIV-1 RT (kinetic analysis); type: biochemical; conditions: for IC50: read-out: ID50 (the source's name)
SUP T1 cells [2] = test system: SUP T1 cells
[3] = target: HIV-1 gp120 interaction with CD4 (Human immunodeficiency virus type 1 group M subtype B, UniProt P04578)
HSV-2 strain HG52 = assay: HSV-2 viral yield reduction assay in Vero cells
[4] = target: T1, FMLV reverse transcriptase (Friend murine leukemia virus, UniProt P26810); assay: Reverse transcriptase assay (ELOSA); type: biochemical; conditions: read-out: inhibitory concentration for 50% reduction in RT activity
T1 construct: Culture media containing FMLV reverse transcriptase (RT) was mixed with various concentrations; endogenous in cells; host or cells: culture medium of FMLV-infected murine fibroblasts (pLRB215)

[5] = test system: HIV-1 strains (SKI, RF, DV, IIIB, ADP/141); assay: microbe, parasite or virus in culture; type: cell-based
HIV-2 (ROD, EHO) = assay: HIV-2 infection assay in MT4 cells; type: cell-based; conditions: read-out: IC50 virus production
SIVMAC251 = type: cell-based, simian immunodeficiency virus; conditions: SIVMAC251, MT4; read-out: IC50 virus production
[6] = test system: Vesicular Stomatitis virus
Influenza A (H3N2) = Influenza A (H3N2) assay
[7] = target: recombinant HIV-1 integrase (wild-type) (Human immunodeficiency virus type 1 group M subtype B, UniProt P12497); assay: HIV-1 integrase 3′-processing and strand transfer assays; type: biochemical; design: Purified recombinant HIV-1 integrase enzyme (wild-type) was a generous gift from Dr. R. Craigie; purchased gift of Dr. R. Craigie, Laboratory of Molecular Biology, NIDDK (not bought)
Method: Integrase enzyme assays. Purified recombinant HIV-1 integrase enzyme (wild-type) was a generous gift from Dr. R. Craigie, Laboratory of Molecular Biology, National Institute of Diabetes and Digestive and Kidney Diseases. The enzyme (0.25 μM) was preincubated in reaction buffer at 20° C. for 30 minutes. All 3′-processing and strand-transfer reactions were performed as described previously by Fresen et al. (Fresen, et al., Proc. Natl. Acad. Sci. USA 90:2399-2403 (1993)) and Mazumder et al. (Mazumder, et al., Proc. Natl. Acad. Sci. USA 91:5771-5775 (1994)). Enzyme reactions were quenched by the addition of Maxam-Gilbert loading dye, and an aliquot was electrophoresed on a denaturing 20% polyacrylamide gel. Gels were then dried and subjected to autoradiography using Kodax XAR-2 film or exposed in a Molecular Dynamics Phospholmager cassette.
Integrase was preincubated at a final concentration of 200 (for HIV-1 and HIV-2) or 600 nM (for FIV and SIV) with inhibitor in reaction buffer (50 mM Nac1, 1 mM HEPES, pH 7.5, 50 μM dithiothreitol, 10% glycerol (wt/vol), 7.5 mM MnCl2 or MgCL2 (when specified), 0.1 mg/mL bovine serum albumin, 20 mM 2-mercaptoethanol, 10% dimethyl sulfoxide, and 25 mM MOPS, pH 7.2) at 30° C. for 30 minutes. When magnesium was used as the divalent metal ion, polyethylene glycol was added at a final concentration of 5% to increase activity as previously described (Engelman & Craigie, 1995). Preincubation for 30 minutes of the enzyme with inhibitor was performed to optimize increases the inhibitory activity in the 3′-processing reaction (Fesen et al., 1994). Then, 30 nM of the 5′-end ^32P-labeled linear oligonucleotide substrate was added, and incubation was continued for an additional 1 hr. The final reaction volume was 16 μL.
Electrophoresis and quantitation. Reactions were quenched by the addition of an equal volume […] of loading dye (98% deionized formamide, 10 mM EDTA, 0.025% xylene cyanol, 0.025% bromophenol blue). An aliquot (5 μL) was electrophoresed on a denaturing 20% polyacrylamide gel (0.09 M Tris-borate pH 8.3, 2 mM EDTA, 20% acrylamide, 8M urea). Gels were dried, exposed in a Molecular Dynamics Phosphorimager cassette, and analyzed using a Molecular Dynamics phosphorimager (Sunnyvale, Calif.). Percent inhibition was calculated using the following equation:
where C, N, and D are the fractions of 21mer substrate converted to 19mer (3′-processing product) or strand transfer products for DNA alone, DNA plus integrase, and integrase plus drug, respectively.
Antiviral assay. The RF laboratory strain of HIV-1 was used to infect established cell lines for one hour at 37° C. prior to washing and resuspension in medium containing increasing concentrations of drug. […] Purified recombinant HIV-1 integrase enzyme (wild-type) was a generous gift from Dr. Craigie, Laboratory of Molecular Biology, NIDDK. All 3′-processing and strand-transfers were performed as described previously by Fresen et al. (Fresen et al. (1993) Proc. Natl. Acad. Sci. VSA 90, 2399-2403) and Mazurnder et al. (Mazumder et al. (1994) Proc. Natl. Acad. Sci. USA 91, 5771-75).

[8] = SUP T1, HIV-1DV, four days, read-out: IC50 Syn (syncytium inhibition)
[9] = read-out: ID50 [CD4], oligo binding to immobilized CD4
[10] = read-out: ID50 [gp 120], oligo preincubated with soluble gp120

Chain of T7 polymerase (P00573 whole entry, the tested form may be a part): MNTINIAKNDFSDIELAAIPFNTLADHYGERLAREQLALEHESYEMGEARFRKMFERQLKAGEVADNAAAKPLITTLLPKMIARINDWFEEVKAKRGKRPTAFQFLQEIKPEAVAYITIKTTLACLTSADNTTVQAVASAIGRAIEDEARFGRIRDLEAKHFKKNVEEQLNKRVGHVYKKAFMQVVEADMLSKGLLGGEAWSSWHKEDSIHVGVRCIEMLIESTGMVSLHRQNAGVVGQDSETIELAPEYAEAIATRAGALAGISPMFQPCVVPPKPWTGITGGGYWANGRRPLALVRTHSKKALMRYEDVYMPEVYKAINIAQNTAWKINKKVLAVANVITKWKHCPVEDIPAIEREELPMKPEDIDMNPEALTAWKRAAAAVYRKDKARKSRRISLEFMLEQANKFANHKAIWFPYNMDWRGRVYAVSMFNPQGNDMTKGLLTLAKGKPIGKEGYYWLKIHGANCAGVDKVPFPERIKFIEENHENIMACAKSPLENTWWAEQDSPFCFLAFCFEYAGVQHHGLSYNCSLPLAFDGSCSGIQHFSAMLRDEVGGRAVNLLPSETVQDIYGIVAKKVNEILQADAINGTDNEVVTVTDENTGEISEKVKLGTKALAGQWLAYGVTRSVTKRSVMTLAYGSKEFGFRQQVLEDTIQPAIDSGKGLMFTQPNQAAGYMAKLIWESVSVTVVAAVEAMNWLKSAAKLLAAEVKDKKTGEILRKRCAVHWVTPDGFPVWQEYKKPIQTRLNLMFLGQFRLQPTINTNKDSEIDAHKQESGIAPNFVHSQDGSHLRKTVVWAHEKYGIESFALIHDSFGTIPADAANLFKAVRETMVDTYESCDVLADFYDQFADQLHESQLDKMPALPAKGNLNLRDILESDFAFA

## 5′-gatccatgtcagtgacactgcgtagatccgatgatccagtcgatg-3′ [I100-11]
T7 polymerase
  T7 directed transcription: increased the level of specific transcripts
SUP T1 cells [1]
  CC50: 46.5 µM
HSV-1 IE175 promoter
  eukaryotic transcription from HSV-1 IE175 promoter: capable of inhibiting eukaryotic transcription

## 5′-gtggtgggtgggtgggtggtgggtggtggttgtgggtgggtggtg-3′ [I100-07]
HIV-1 strain DV; [8]
  IC50: 250 nM
HIV-1 strain DV; SUP T1, HIV-1 DV, read-out: IC50 in anti-HIV-1 syncytia formation assay
  IC50: 250 nM
HIV-1DV; 2.5 uM, drug removed day 4
  Percent p24 relative to infected untreated control, Day 7: 15.9%
  Percent p24 relative to infected untreated control, Day 11: 8.6%
HIV-1DV; 2.5 uM, medium replaced day 4
  Percent p24 relative to infected untreated control, Day 4: 6.0%
HIV-1DV
  IC50: 550 nM
HIV-1 RT
  Ki: 137 nM
  IC50: 2500 nM
SUP T1 cells [2]
  CC50: > 50 µM
[3]; control experiment
  inhibition of detection of immobilized gp120 by HRP-α-gp120 antibody: did not inhibit
[3]; [9]
  IC50: 4250 nM
[3]; [10]
  IC50: 800 nM

## B106-97: fully phosphorothioated version of B106-71 (dG*dT*dG*dG*dT*dT*dG*dG*dT*dG*dG*dT*dG*dG*dT*dG*dT*dG*dT*dG*dG*dG*dT*dT*dT*dG*dG*dG*dG*dT*dG*dG*dG*dG*dG*dG; 3' end capped with propanolamine or cholesterol, which one not given here)
HSV-2 strain HG52
  concentration reducing virus by 50%: same levels as B106-96

## 5′-gttgggggttgttggtggggtggtgg-3′ [I100-12] (GTTGGGGGTTGTTGGTGGGGTGGTGG; phosphorothioate backbone, further chemistry not given here)
HIV-1 strain DV; [8]
  IC50: 225 nM
[4]
  IC50: < 500 nM
HIV-1DV
  IC50: < 200 nM
HIV-1 RT
  Ki: 5 nM
  IC50: 15 nM
SUP T1 cells [2]
  CC50: 18 µM
[3]; [9]
  IC50: 475 nM
[3]; [10]
  IC50: 80 nM

## Dextran sulfate [DS5000, reference compound]
[5]; HIV-1 ADP/141 (AZT resistant), MT4, read-out: IC50 virus production
  IC50: 32 ± 8 nM
[5]; HIV-1 IIIB, CEM-SS or MT4, read-out: Antiviral Assay IC50 IIIB
  IC50: 31 nM
[5]; HIV-1 IIIB, MT4, read-out: IC50 virus production
  IC50: 34 ± 16 nM
[5]; HIV-1 RF, CEM-SS or MT4, read-out: Antiviral Assay IC50 RF
  IC50: 16 nM
[5]; HIV-1 RF, MT4, read-out: IC50 virus production
  IC50: 18 ± 20 nM
HIV-2 (ROD, EHO); HIV-2EHO
  IC50: 84 ± 86 nM
HIV-2 (ROD, EHO); HIV-2ROD
  IC50: 82 ± 88 nM
SIVMAC251
  IC50: 548 ± 480 nM
HSV-1; HSV-1 (KOS)
  IC50 virus-induced cytopathogenicity: 2 µg/mL
HSV-1; HSV-1 (KOS) assay
  MCC minimum concentration altering normal cell morphology: >400 μg/mL
HSV-1; HSV-1 TK (B2006)
  IC50 virus-induced cytopathogenicity: 2 µg/mL
HSV-1; HSV-1 TK (B2006) assay
  MCC minimum concentration altering normal cell morphology: >400 μg/mL
HSV-1; HSV-1 TK (VMW1837)
  IC50 virus-induced cytopathogenicity: 2 µg/mL
HSV-1; HSV-1 TK (VMW1837) assay
  MCC minimum concentration altering normal cell morphology: >400 μg/mL
HSV-2 (G); HSV-2 (G)
  IC50 virus-induced cytopathogenicity: 2 µg/mL
HSV-2 (G); HSV-2 (G) assay
  MCC minimum concentration altering normal cell morphology: >400 μg/mL
Sindbis virus; Sindbis virus
  IC50 virus-induced cytopathogenicity: 10 µg/mL
Sindbis virus; Sindbis virus assay
  MCC minimum concentration altering normal cell morphology: >400 μg/mL
Semliki forest virus; Semliki forest virus
  IC50 virus-induced cytopathogenicity: >400 µg/mL
Semliki forest virus; Semliki forest virus assay
  MCC minimum concentration altering normal cell morphology: >400 μg/mL
[6]
  IC50 virus-induced cytopathogenicity: 20 µg/mL
  MCC minimum concentration altering normal cell morphology: >400 μg/mL
Vaccinia virus
  IC50 virus-induced cytopathogenicity: >400 µg/mL
  MCC minimum concentration altering normal cell morphology: >400 μg/mL
Punta Toro virus; Punta Toro virus
  IC50 virus-induced cytopathogenicity: 10.9 µg/mL
Punta Toro virus; Punta Toro virus assay
  MCC minimum concentration altering normal cell morphology: >400 μg/mL
Yellow Fever virus
  IC50 virus-induced cytopathogenicity: 26 µg/mL
  MCC minimum concentration altering normal cell morphology: >200 μg/mL
RSV (A2); RSV (A2)
  IC50 virus-induced cytopathogenicity: 4 µg/mL
RSV (A2); RSV (A2) assay
  MCC minimum concentration altering normal cell morphology: >200 μg/mL
Influenza A (H3N2)
  MCC minimum concentration altering normal cell morphology: >400 μg/mL
Junin virus
  IC50 virus-induced cytopathogenicity: 13 µg/mL
  MCC minimum concentration altering normal cell morphology: >200 μg/mL
Tacaribe
  IC50 virus-induced cytopathogenicity: 13.5 µg/mL
  MCC minimum concentration altering normal cell morphology: >200 μg/mL
Coxsackie virus (B4); Coxsackie virus (B4)
  IC50 virus-induced cytopathogenicity: >400 µg/mL
Coxsackie virus (B4); Coxsackie virus (B4) assay
  MCC minimum concentration altering normal cell morphology: >400 μg/mL
Polio virus-1
  IC50 virus-induced cytopathogenicity: >400 µg/mL
  MCC minimum concentration altering normal cell morphology: >400 μg/mL
[7]; 3′-processing, read-out: Anti-Integrase Assay IC50 3′-proc
  IC50: 70 nM
[7]; strand transfer, read-out: Anti-Integrase Assay IC50 strand tran.
  IC50: 60 nM
